In one data set the target is T1, CXCR4 (Homo sapiens, UniProt P61073).
T1 construct: endogenous in cells; host or cells: MDA-MB-231
T1 sequence (P61073 whole entry): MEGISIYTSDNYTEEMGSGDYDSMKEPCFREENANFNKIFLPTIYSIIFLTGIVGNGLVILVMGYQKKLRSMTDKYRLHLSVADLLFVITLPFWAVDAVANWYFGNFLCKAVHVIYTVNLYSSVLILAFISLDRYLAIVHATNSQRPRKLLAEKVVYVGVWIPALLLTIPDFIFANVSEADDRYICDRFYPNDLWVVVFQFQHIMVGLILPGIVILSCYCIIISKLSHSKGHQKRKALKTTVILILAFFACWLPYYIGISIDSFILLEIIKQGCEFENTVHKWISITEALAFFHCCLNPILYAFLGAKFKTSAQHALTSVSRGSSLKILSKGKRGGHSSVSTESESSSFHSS
The experiment in a line: Primary binding affinity screening (competition with biotinylated TN14003 on MDA-MB-231 cells). Conditions: EC relative to AMD3100. On the procedure: For binding affinity assay, 2×10^4 MDA-MB-231 cells in 300 μL of cell culture medium were seeded in an 8-well slide chamber 2 days before the experiments were conducted. Various concentrations of different compounds (1, 10, 100, or 1000 nM) were added to the separate wells and incubated for 10 minutes at room temperature, and then the cells were fixed in 4% ice-cold paraformaldehyde. The cells were rehydrated in phosphate-buffered saline (PBS). The slides were subsequently incubated for 30 minutes at room temperature with 0.05 μg/mL biotinylated TN14003, washed three times with PBS, and incubated in streptavidin-rhodamine (1:150 dilution; Jackson ImmunoResearch Laboratories, West Grove, Pa.) for 30 minutes at room temperature. Finally, the slides were washed with PBS and mounted in an anti-fade mounting solution (Molecular Probes, Eugene, Oreg.), and the samples were analyzed on a Nikon Eclipse E800 microscope.
Take `Cc1ccccc1C(=O)NCc1ccc(CNS(=O)(=O)c2ccccc2)cc1` [IIIb, 2-Methyl-N-(4-(phenylsulfonamidomethyl)benzyl)benzamide]: the “potency compared with AMD3100” value is recorded as 1000 fold.
In the case of `O=C(NCc1ccc(CNS(=O)(=O)c2ccccc2)cc1)c1ccc(F)cc1` [IIIj, 4-Fluoro-N-(4-(phenylsulfonamidomethyl)benzyl)benzamide], the “potency compared with AMD3100” value was 1000 fold.
For the compound “Fluoro-N-(4-(phenylsulfonamidomethyl)benzyl)benzamide [IIIi]”, the “potency compared with AMD3100” value amounted to 1000 fold.

The same data set, now with this note: MDA-MB-231 cells; compounds at 1, 10, 100, or 1000 nM; biotinylated TN14003.
Take `Cc1ccccc1C(=O)NCc1ccc(CNS(=O)(=O)c2ccccc2)cc1` [IIIb, 2-Methyl-N-(4-(phenylsulfonamidomethyl)benzyl)benzamide]: the EC is given as 1 nM.
Compound `O=C(NCc1ccc(CNS(=O)(=O)c2ccccc2)cc1)c1ccc(F)cc1` [IIIj, 4-Fluoro-N-(4-(phenylsulfonamidomethyl)benzyl)benzamide] gave an EC of 1 nM.
Compound `O=C(NCc1ccc(CNS(=O)(=O)c2ccccc2)cc1)c1ccc(CNc2ncccn2)cc1` [N-(4-(phenylsulfonamidomethyl)benzyl)-4-((pyrimidin-2-ylamino)methyl)benzamide] gave an EC of 1 nM.
With “Fluoro-N-(4-(phenylsulfonamidomethyl)benzyl)benzamide [IIIi]”, the EC was determined as 1 nM.

Test system in a further data set: not given
Experiment: not given
Details: not given
Turning to `Cc1ccccc1C(=O)NCc1ccc(CNS(=O)(=O)c2ccccc2)cc1` [IIIb, 2-Methyl-N-(4-(phenylsulfonamidomethyl)benzyl)benzamide], the melting point was 129 to 131 °C.
With `Cc1cccc(C(=O)NCc2ccc(CNS(=O)(=O)c3ccccc3)cc2)c1` [IIIc, 3-Methyl-N-(4-(phenylsulfonamidomethyl)benzyl)benzamide], the melting point fell in the range of 112 to 114 °C.
In turn, `Cc1ccc(C(=O)NCc2ccc(CNS(=O)(=O)c3ccccc3)cc2)cc1` [IIId, 4-Methyl-N-(4-(phenylsulfonamidomethyl)benzyl)benzamide] came in with a melting point of 188 to 190 °C.
`COc1cccc(C(=O)NCc2ccc(CNS(=O)(=O)c3ccccc3)cc2)c1` [IIIf, 3-Methoxy-N-(4-(phenylsulfonamidomethyl)benzyl)benzamide] yielded a melting point of 120 to 122 °C.
Compound `COc1ccc(C(=O)NCc2ccc(CNS(=O)(=O)c3ccccc3)cc2)cc1` [IIIg, 4-Methoxy-N-(4-(phenylsulfonamidomethyl)benzyl)benzamide] had a melting point of 164 to 166 °C.
In turn, `O=C(NCc1ccc(CNS(=O)(=O)c2ccccc2)cc1)c1ccccc1F` [IIIh, 2-Fluoro-N-(4-(phenylsulfonamidomethyl)benzyl)benzamide] showed a melting point of 122 to 124 °C.
Compound `O=C(NCc1ccc(CNS(=O)(=O)c2ccccc2)cc1)c1ccccc1Cl` [IIIk, 2-Chloro-N-(4-(phenylsulfonamidomethyl)benzyl)benzamide] displayed a melting point of 116 to 118 °C.
For the compound `O=C(NCc1ccc(CNS(=O)(=O)c2ccccc2)cc1)c1cccc(Cl)c1` [IIIm, 3-Chloro-N-(4-(phenylsulfonamidomethyl)benzyl)benzamide], the melting point lay in the range of 114 to 116 °C.
Take `O=C(NCc1ccc(CNS(=O)(=O)c2ccccc2)cc1)c1ccc(Cl)cc1` [IIIn, 4-Chloro-N-(4-(phenylsulfonamidomethyl)benzyl)benzamide]: the melting point lay in the range of 182 to 184 °C.
`O=C(NCc1ccc(CNS(=O)(=O)c2ccccc2)cc1)c1ccc([N+](=O)[O-])cc1` [IIIo, 4-Nitro-N-(4-(phenylsulfonamidomethyl)benzyl)benzamide] showed a melting point of 201 to 203 °C.
`O=C(NCc1ccc(CNS(=O)(=O)c2ccccc2)cc1)c1c(Cl)cc(Cl)cc1Cl` [IIIp, 2,4,6-Trichloro-N-(4-(phenylsulfonamidomethyl)benzyl)benzamide] gave a melting point of 158 to 160 °C.
`O=C(NCc1ccc(CNS(=O)(=O)c2ccccc2)cc1)c1cccnc1` [IIIq, N-(4-(phenylsulfonamidomethyl)benzyl)nicotinamide] yielded a melting point of 109 to 111 °C.
In the case of `O=C(NCc1ccc(CNS(=O)(=O)c2ccccc2)cc1)c1ccncc1` [IIIr, N-(4-(phenylsulfonamidomethyl)benzyl)isonicotinamide], the melting point lay within 154 to 156 °C.
In turn, `Cc1ccc(S(=O)(=O)NCc2ccc(CNC(=O)c3ccccc3)cc2)cc1` [IIa, N-(4-((4-methylphenylsulfonamido)methyl)benzyl)benzamide] registered a melting point of 162 to 164 °C.
As for `Cc1ccc(S(=O)(=O)NCc2ccc(CNC(=O)c3ccccc3C)cc2)cc1` [IIb, 2-Methyl-N-(4-((4-methylphenylsulfonamido)methyl)benzyl)benzamide], the melting point lay within 147 to 149 °C.
`Cc1ccc(S(=O)(=O)NCc2ccc(CNC(=O)c3cccc(C)c3)cc2)cc1` [IIc, 3-Methyl-N-(4-((4-methylphenylsulfonamido)methyl)benzyl)benzamide] came in with a melting point of 123 to 125 °C.
Compound `Cc1ccc(C(=O)NCc2ccc(CNS(=O)(=O)c3ccc(C)cc3)cc2)cc1` [IId, 4-Methyl-N-(4-((4-methylphenylsulfonamido)methyl)benzyl)benzamide] showed a melting point of 180 to 182 °C.
The same measure, in the same setting: then `COc1ccccc1C(=O)NCc1ccc(CNS(=O)(=O)c2ccc(C)cc2)cc1` [IIe, 2-Methoxy-N-(4-((4-methylphenylsulfonamido)methyl)benzyl)benzamide], with 154 to 156 °C; and `COc1cccc(C(=O)NCc2ccc(CNS(=O)(=O)c3ccc(C)cc3)cc2)c1` [IIf, 3-Methoxy-N-(4-((4-methylphenylsulfonamido)methyl)benzyl)benzamide], with 130 to 132 °C.
`COc1ccc(C(=O)NCc2ccc(CNS(=O)(=O)c3ccc(C)cc3)cc2)cc1` [IIg, 4-Methoxy-N-(4-((4-methylphenylsulfonamido)methyl)benzyl)benzamide]: the melting point lay in the range of 147 to 149 °C.
The same measure, in the same setting: the value for `Cc1ccc(S(=O)(=O)NCc2ccc(CNC(=O)c3ccccc3F)cc2)cc1` [IIh, 2-Fluoro-N-(4-((4-methylphenylsulfonamido)methyl)benzyl)benzamide] was 138 to 140 °C; that for `Cc1ccc(S(=O)(=O)NCc2ccc(CNC(=O)c3cccc(F)c3)cc2)cc1` [IIi, 3-Fluoro-N-(4-((4-methylphenylsulfonamido)methyl)benzyl)benzamide] was 137 to 139 °C; that for `Cc1ccc(S(=O)(=O)NCc2ccc(CNC(=O)c3ccccc3Cl)cc2)cc1` [IIk, 2-Chloro-N-(4-((4-methylphenylsulfonamido)methyl)benzyl)benzamide] was 140 to 142 °C.
For the compound `Cc1ccc(S(=O)(=O)NCc2ccc(CNC(=O)c3cccc(Cl)c3)cc2)cc1` [IIm, 3-Chloro-N-(4-((4-methylphenylsulfonamido)methyl)benzyl)benzamide], the melting point is 110 to 112 °C.
Take `Cc1ccc(S(=O)(=O)NCc2ccc(CNC(=O)c3ccc(Cl)cc3)cc2)cc1` [IIn, 4-Chloro-N-(4-((4-methylphenylsulfonamido)methyl)benzyl)benzamide]: the melting point was in the range of 201 to 203 °C.
Same read-out and setting: the value for `Cc1ccc(S(=O)(=O)NCc2ccc(CNC(=O)c3ccc([N+](=O)[O-])cc3)cc2)cc1` [IIo, N-(4-((4-methylphenylsulfonamido)methyl)benzyl)-4-nitrobenzamide] was 207 to 209 °C; that for `Cc1ccc(S(=O)(=O)NCc2ccc(CNC(=O)c3c(Cl)cc(Cl)cc3Cl)cc2)cc1` [IIp, 2,4,6-Trichloro-N-(4-((4-methylphenylsulfonamido)methyl)benzyl)benzamide] was 188 to 190 °C.
The same measure, in the same setting: then `Cc1ccc(S(=O)(=O)NCc2ccc(CNC(=O)c3cccnc3)cc2)cc1` [IIq, N-(4-((4-methylphenylsulfonamido)methyl)benzyl)nicotinamide], with 120 to 122 °C; and `Cc1ccc(S(=O)(=O)NCc2ccc(CNC(=O)c3ccncc3)cc2)cc1` [IIr, N-(4-((4-methylphenylsulfonamido)methyl)benzyl)isonicotinamide], with 163 to 165 °C; and `O=C(NCc1ccc(CNS(=O)(=O)c2ccc3c(c2)CCO3)cc1)c1cc2ccccn2n1` [Ib, N-(4-((2,3-dihydrobenzofuran-5-sulfonamido)methyl)benzyl)pyrazolo[1,5-a]pyridine-2-carboxamide], with 180 to 182 °C.
In turn, `Cn1nccc1C(=O)NCc1ccc(CNS(=O)(=O)c2ccc3c(c2)CCO3)cc1` [Ic, N-(4-((2,3-dihydrobenzofuran-5-sulfonamido)methyl)benzyl)-1-methyl-1H-pyrazole-5-carboxamide] had a melting point of 143 to 145 °C.
For the compound `O=C(NCc1ccc(CNS(=O)(=O)c2ccc3c(c2)CCO3)cc1)c1cccc2c1COC2` [Id, N-(4-((2,3-dihydrobenzofuran-5-sulfonamido)methyl)benzyl)-1,3-dihydroisobenzofuran-4-carboxamide], the melting point is 149 to 151 °C.
For the compound `O=C(NCc1ccc(CNS(=O)(=O)c2ccc(F)cc2F)cc1)c1ncc[nH]1` [Ie, N-(4-((2,4-difluorophenylsulfonamido)methyl)benzyl)-1H-imidazole-2-carboxamide], the melting point lay in the range of 225 to 227 °C.
Same read-out and setting: then `O=C(NCc1ccc(CNS(=O)(=O)c2cccc(F)c2)cc1)c1cc2ccccn2n1` [Ih, N-(4-((3-fluorophenylsulfonamido)methyl)benzyl)pyrazolo[1,5-a]pyridine-2-carboxamide], with 163 to 165 °C.
In the case of `O=C(NCc1ccc(CNS(=O)(=O)c2ccc(F)c(F)c2)cc1)c1cnc2ccccn12` [Ii, N-(4-((3,4-difluorophenylsulfonamido)methyl)benzyl)imidazo[1,2-a]pyridine-3-carboxamide], the melting point fell in the range of 192 to 194 °C.
`O=C(NCc1ccc(CNS(=O)(=O)c2ccccc2F)cc1)c1cc2ccccn2n1` [Ij, N-(4-((2-fluorophenylsulfonamido)methyl)benzyl)pyrazolo[1,5-a]pyridine-2-carboxamide] registered a melting point of 138 to 140 °C.

As a reminder, the melting point is the temperature, or range, at which the solid turns liquid.

The record behind these values is patent US10669270B2, “Amide-sulfamide derivatives, compositions, and uses related to CXCR4 inhibition” (Emory University, priority 2016, dated 2020).
